Results as given in US8796320B2, “1,3,4-Oxadiazole-2-carboxamide compound” (General Incorporated Association Pharma Valley Project …, priority 2009, dated 2014).
One block for each compound: values may come before it.

How the values were obtained:
Assay type in all cases: cell-based
STAT3 = STAT3 transcription inhibition test (reporter gene method); settings: Homo sapiens; compound at 100 μM; STAT3 reporter HeLa stable cell line, oncostatin M 10 ng/mL, 4 hours; read-out: STAT3 transcription inhibitory activity (%)
Experimental: The inhibition of STAT3 transcription was evaluated by using STAT3 reporter HeLa stable cell line (Panomics Inc., catalog No. RC0003), a cell line for the reporter gene method, and performing the following method according to the appendix included therein.
STAT3, reporter HeLa stable cell line subcultured and maintained in a Dulbecco's modified Eagle's medium (DMEM) containing 10% fetal bovine serum, 100 units/mL penicillin, and 100 μg/mL streptomycin was inoculated at a concentration of 40000 cells/well to a 96-well plate (white) and attached to the plate by overnight incubation at 37° C. under 5% CO2. After addition of each evaluation compound adjusted to various concentrations (adjusted with a DMSO solution), the cells were precultured for 1 hour. Then, oncostatin M for activating STAT3 was added at a final concentration 10 ng/mL, and the cells were further cultured at 37° C. under 5% CO2 for 4 hours. Luciferase activity derived from the cells was determined using Steady-Glo Luciferase Assay System (Promega Corp.), and STAT3 transcriptional activity scores were calculated according to the following formula: STAT3 transcriptional activity score (%)=100×(Lchem−L0)/(LDMSO−L0) • L0: luminescence intensity obtained without stimulation with oncostatin M • Lchem: luminescence intensity obtained by the addition of a test sample • LDMSO: luminescence intensity obtained by the addition of only a solvent for dissolving a test sample
The test results were indicated in the rate of inhibition of STAT3 transcription by each compound at a concentration of 100 μM.

MDA-MB-468 = MDA-MB-468 cell growth inhibitory activity; settings: Homo sapiens; compound at 20 μM; MDA-MB-468, 72 hours
Experimental: MDA-MB-468 diluted with phenol red-free DMEM/F-12 (GIBCO; 10% FBS, 20 units/ml penicillin/streptomycin) was inoculated at a concentration of 2000 cells/well to a 96-well plate (Greiner Bio-One) and cultured overnight at 37° C. in the presence of 5% CO2. Then, a test sample solution (containing 2 (v/v)% DMSO) adjusted to 10 μM was added thereto at a concentration of 10 μL/well and contacted with the cells at 37° C. for 72 hours in the presence of 5% CO2. Each well was washed three times with a medium. Then, after addition of 100 μL/well of a medium and 20 μL/well of CellTiter 96 AQueous, One Solution Reagent (Promega Corp.), the cells were incubated at 37° C. for 2 hours in the presence of 5% CO2. Absorbance at 495 nm was measured using Multiplate reader (Molecular Devices, Inc.), and the rate of inhibition of cell growth was calculated according to the following formula: Rate of inhibition of cell growth (%)=100−100×(Abschem−bkgd)/(AbsDMSO−bkgd) • Abschem: absorbance obtained by the addition of a test sample • AbsDMSO: absorbance obtained by the addition of only a solvent for test sample dissolution • bkgd: absorbance obtained by the addition of CellTiter 96 AQueous One Solution Reagent to a medium for cell culture
The test results were indicated in the rate of inhibition of cell growth by each compound at a concentration of 20 μM.

[1] = system: Human lymphoma SCC-3 cells; experiment: SCC-3 cell growth inhibition test (MTT method); settings: 72-hour culture
Experimental: Human lymphoma SCC-3 cells purchased from Japan Health Sciences Foundation were cultured for […] at a density of 5000 cells/well in a 96-well plate with RPMI1640 (Sigma-Aldrich Corp.) containing 10% fetal bovine serum (FBS; GIBCO) as a culture medium.
Simultaneously with cell inoculation, each test compound diluted to various concentrations with an RPMI medium was added to each well. After 72-hour culture, cell growth inhibitory activity was determined by the MTT method (J. Immunol. Methods, 1993, 65, 581-593) using a microplate reader (NJ-2300, BioTek Instruments, Inc.).
The test results were indicated in a concentration (IC50) at which 50% cell growth was inhibited.

SMILES: O=C(Nc1nnc(-c2ccco2)o1)c1cccc(-c2cccc([N+](=O)[O-])c2)c1 [Compound Ia-5, N-[5-(2-Furyl)-1,3,4-oxadiazol-2-yl]-3′-nitro-3-biphenylcarboxamide]
inhibition at 100 µM (STAT3): 98%
inhibition at 20 µM (MDA-MB-468): 88%

SMILES: O=C(Nc1nnc(-c2ccco2)o1)c1cc(-c2cccs2)nc2nc(N3CCCCC3)sc12 [Compound Ib-27, N-[5-(2-Furyl)-1,3,4-oxadiazol-2-yl]-2-piperidino-5-(2-thienyl)-7-thiazolo[4,5-b]pyridinecarboxamide]
inhibition at 100 µM (STAT3): 67%
inhibition at 20 µM (MDA-MB-468): 82%

IC50 [1]: 1800 nM
SMILES: CN1CCc2cc(-c3cccc(C(=O)Nc4nnc(-c5ccco5)o4)c3)ccc21 [Compound Ia-44, N-[5-(2-Furyl)-1,3,4-oxadiazol-2-yl]-3-(1-methyl-5-indolinyl)benzenecarboxamide]
inhibition at 100 µM (STAT3): 58%

SMILES: O=C(Nc1nnc(-c2ccco2)o1)c1cc(-c2ccccc2)nc2nc(N3CCC(F)(F)CC3)sc12 [Compound Ib-32, 2-(4,4-Difluoropiperidino)-N-[5-(2-furyl)-1,3,4-oxadiazol-2-yl]-5-phenyl-7-thiazolo[4,5-b]pyridinecarboxamide]
inhibition at 100 µM (STAT3): 80%
inhibition at 20 µM (MDA-MB-468): 86%

SMILES: O=C(Nc1nnc(-c2ccco2)o1)c1cc(-c2cccc(Cl)c2)nc2nc(N3CCCCC3)sc12 [Compound Ib-2, 5-(3-Chlorophenyl)-N-[5-(2-furyl)-1,3,4-oxadiazol-2-yl]-2-piperidino-7-thiazolo[4,5-b]pyridinecarboxamide]
inhibition at 100 µM (STAT3): 68%
inhibition at 20 µM (MDA-MB-468): > 100%

SMILES: O=C(Nc1nnc(-c2ccco2)o1)c1cc(-c2ccc(Cl)cc2)nc(-c2ccc(Br)cc2)c1 [Compound Ia-56, 2-(4-Bromophenyl)-6-(4-chlorophenyl)-N-[5-(2-furyl)-1,3,4-oxadiazol-2-yl]-4-pyridinecarboxamide]
inhibition at 100 µM (STAT3): 87%
inhibition at 20 µM (MDA-MB-468): 61%

SMILES: O=C(Nc1nnc(-c2ccsc2)o1)c1cc(-c2ccccc2)nc2nc(N3CCCCC3)sc12 [Compound Ib-19, 5-Phenyl-2-piperidino-N-[5-(3-thienyl)-1,3,4-oxadiazol-2-yl]-7-thiazolo[4,5-b]pyridinecarboxamide]
inhibition at 100 µM (STAT3): 90%
inhibition at 20 µM (MDA-MB-468): 83%

IC50 [1]: 1800 nM
SMILES: Cn1ccc2ccc(-c3cccc(C(=O)Nc4nnc(-c5ccco5)o4)c3)cc21 [Compound Ia-43, N-[5-(2-Furyl)-1,3,4-oxadiazol-2-yl]-3-(1-methyl-6-indolyl)benzenecarboxamide]
inhibition at 100 µM (STAT3): 74%

SMILES: O=C(Nc1nnc(-c2ccco2)o1)c1cccc(-c2ccc(C(=O)c3ccccc3)cc2)c1 [Compound Ia-19, 4′-Benzoyl-N-[5-(2-furyl)-1,3,4-oxadiazol-2-yl]-3-biphenylcarboxamide]
inhibition at 100 µM (STAT3): 55%
inhibition at 20 µM (MDA-MB-468): 94%

SMILES: Cc1ccc(-c2cccc(C(=O)Nc3nnc(-c4ccco4)o3)c2)cc1 [Compound Ia-12, N-[5-(2-Furyl)-1,3,4-oxadiazol-2-yl]-4′-methyl-3-biphenylcarboxamide]
inhibition at 100 µM (STAT3): 83%
inhibition at 20 µM (MDA-MB-468): 61%

SMILES: Cc1ccc(-c2cc(C(=O)Nc3nnc(-c4ccco4)o3)c3sc(N4CCCCC4)nc3n2)cc1 [Compound Ib-3, N-[5-(2-Furyl)-1,3,4-oxadiazol-2-yl]-5-(4-methylphenyl)-2-piperidino-7-thiazolo[4,5-b]pyridinecarboxamide]
inhibition at 100 µM (STAT3): > 100%
inhibition at 20 µM (MDA-MB-468): > 100%

SMILES: O=C(Nc1nnc(-c2ccco2)o1)c1cccc(-c2ccc3ccccc3c2)c1 [Compound Ia-33, N-[5-(2-Furyl)-1,3,4-oxadiazol-2-yl]-3-(2-naphthyl)benzenecarboxamide]
inhibition at 100 µM (STAT3): 90%
inhibition at 20 µM (MDA-MB-468): 98%

SMILES: O=C(Nc1nnc(-c2ccco2)o1)c1cccc(-c2ccc(-c3ccc(Cl)cc3)cc2)c1 [Compound Ia-77, 4″-Chloro-N-[5-(2-furyl)-1,3,4-oxadiazol-2-yl]-3-(p-terphenyl)carboxamide]
inhibition at 100 µM (STAT3): 80%
inhibition at 20 µM (MDA-MB-468): 76%

SMILES: CC(C)Oc1ccc(-c2ccc(-c3cccc(C(=O)Nc4nnc(-c5ccco5)o4)c3)cc2)cc1 [Compound Ia-81, N-[5-(2-Furyl)-1,3,4-oxadiazol-2-yl]-4″-isopropoxy-3-(p-terphenyl)carboxamide]
inhibition at 100 µM (STAT3): 63%
inhibition at 20 µM (MDA-MB-468): 78%

SMILES: O=C(Nc1nnc(-c2ccco2)o1)c1cc(-c2cccs2)nc2nc(N3CCCC3)sc12 [Compound Ib-26, N-[5-(2-Furyl)-1,3,4-oxadiazol-2-yl]-2-(1-pyrrolidinyl)-5-(2-thienyl)-7-thiazolo[4,5-b]pyridinecarboxamide]
inhibition at 100 µM (STAT3): 60%
inhibition at 20 µM (MDA-MB-468): 76%

SMILES: O=C(Nc1nnc(-c2ccco2)o1)c1cc(-c2ccccc2)nc2nc(N3CCSCC3)sc12 [Compound Ib-30, N-[5-(2-Furyl)-1,3,4-oxadiazol-2-yl]-5-phenyl-2-(4-thiomorpholinyl)-7-thiazolo[4,5-b]pyridinecarboxamide]
inhibition at 100 µM (STAT3): > 100%
inhibition at 20 µM (MDA-MB-468): 84%

SMILES: O=C(Nc1nnc(-c2ccco2)o1)c1cccc(-c2ccc(-c3cccc4ccccc34)cc2)c1 [Compound Ia-82, N-[5-(2-Furyl)-1,3,4-oxadiazol-2-yl]-4′-(1-naphthyl)-3-biphenylcarboxamide]
inhibition at 100 µM (STAT3): 54%
inhibition at 20 µM (MDA-MB-468): 75%

SMILES: O=C(Nc1nnc(-c2ccco2)o1)c1cccc(-c2ccc(Oc3ccccc3)cc2)c1 [Compound Ia-66, N-[5-(2-Furyl)-1,3,4-oxadiazol-2-yl]-4′-phenoxy-3-biphenylcarboxamide]
inhibition at 100 µM (STAT3): 58%
inhibition at 20 µM (MDA-MB-468): 59%

SMILES: O=C(Nc1nnc(-c2ccco2)o1)c1cccc(-c2ccc3sccc3c2)c1 [Compound Ia-47, 3-(5-Benzothienyl)-N-[5-(2-furyl)-1,3,4-oxadiazol-2-yl]benzenecarboxamide]
inhibition at 100 µM (STAT3): 58%
inhibition at 20 µM (MDA-MB-468): 53%

SMILES: O=C(Nc1nnc(-c2ccco2)o1)c1cccc(-c2cnc3ccccc3c2)c1 [Compound Ia-99, N-[5-(2-Furyl)-1,3,4-oxadiazol-2-yl]-3-(3-quinolyl)benzenecarboxamide]
inhibition at 100 µM (STAT3): 78%
inhibition at 20 µM (MDA-MB-468): 55%

SMILES: Cn1ccc2cc(-c3cc(F)cc(C(=O)Nc4nnc(-c5ccco5)o4)c3)ccc21 [Compound Ia-52, 5-Fluoro-N-[5-(2-furyl)-1,3,4-oxadiazol-2-yl]-3-(1-methyl-5-indolyl)benzenecarboxamide]
inhibition at 100 µM (STAT3): 71%
inhibition at 20 µM (MDA-MB-468): 91%

SMILES: O=C(Nc1nnc(-c2ccco2)o1)c1cccc(-c2ccc([N+](=O)[O-])cc2)c1 [Compound Ia-24, N-[5-(2-Furyl)-1,3,4-oxadiazol-2-yl]-4′-nitro-3-biphenylcarboxamide]
inhibition at 100 µM (STAT3): 94%
inhibition at 20 µM (MDA-MB-468): 97%

SMILES: Cc1cc(C#N)ccc1-c1cccc(C(=O)Nc2nnc(-c3ccco3)o2)c1 [Compound Ia-29, 4′-Cyano-N-[5-(2-furyl)-1,3,4-oxadiazol-2-yl]-2′-methyl-3-biphenylcarboxamide]
inhibition at 100 µM (STAT3): 81%
inhibition at 20 µM (MDA-MB-468): 87%

SMILES: C[Si](C)(C)c1ccc(-c2cccc(C(=O)Nc3nnc(-c4ccco4)o3)c2)cc1 [Compound Ia-62, N-[5-(2-Furyl)-1,3,4-oxadiazol-2-yl]-4′-trimethylsilyl-3-biphenylcarboxamide]
inhibition at 100 µM (STAT3): 76%
inhibition at 20 µM (MDA-MB-468): 71%

SMILES: COC(=O)c1ccc(-c2cccc(C(=O)Nc3nnc(-c4ccco4)o3)c2)cc1 [Compound Ia-69, N-[5-(2-Furyl)-1,3,4-oxadiazol-2-yl]-4′-methoxycarbonyl-3-biphenylcarboxamide]
inhibition at 100 µM (STAT3): 53%
inhibition at 20 µM (MDA-MB-468): 69%
